US20060116390A1, “Hepatitis c virus inhibitors” (priority 2003, published 2006)
Read-outs that look alike come from different tables or passages of the source.

Test system: HCV proteins in Rep5.1 cells (replicon cell line)
Experiment: Inhibitory activity of HCV: cell-based ELISA in replicon cell line Rep5.1 (decrease of HCV proteins)
Parameters: species or system hepatitis C virus
Settings: Rep5.1 cells, 72 hours with drug
Experimental: In order to, screen and evaluate the anti-HCV therapeutic agents in cell level, the following experiments are carried out using a replicon cell line, Rep5.1 [Lohmann, et al., Replication of subgenomic hepatitis C virus RNAs in a hepatoma cell line. Science 285:110-113 (1999)].
Rep5.1 cells, the replicon cell line, are cultured in DMEM-10 containing 500 μg/ml of G418. The Rep5.1 cells in log phase are suspended by trypsin treatment, and 5000 cells are distributed to each well of a 96-well plate. After 4 hours when the cells are attached to the plate, the serially diluted drug is added to each well. After 48 hours, a part of the treated cells are observed by microscope, and MTT assay is carried out to evaluate the drug toxicity. The cytotoxicity is estimated in percentage based on the control containing no drug. After 72 hours, the remaining cells are fixed by methanol/acetone (50/50, v/v), and the decrease of HCV proteins is measured by using HCV antibody. The extent of decrease is estimated in percentage based on the control containing no drug, and the concentration of drug at which 50% of proteins is decreased is determined to be IC50. The compounds showing activity via this procedure are validated by Western blotting. In order to find out whether the decrease of HCV protein is related to the decrease of replicon RNA, Rep5.1 cell is treated with some selected drugs for 72 hours, RNA is purified, dot blotted, and hybridized with isotope labelled nucleic acid to determine the amounts of actin mRNA and replicon RNA, and finally the amount of RNA is compared.
Plasma samples from 300 persons positive to the hepatitis C antibody test were screened by antibody diagnosis kit produced by LG life Sciences Ltd. (LG HCD3.0 TMB) to select 40 plasma samples having high titer. Replicon cell line and Huh-7 cell line each were cultured in a 96-well cell culture plate, fixed by methanol/acetone (1:1) mixture, and blocked by 3% skimmed milk. The 40 plasma sanples selected above were 100-fold diluted and aided thereto, and the bound antibodies were probed by anti-Human goat antibody (Sigma) to which Horse Radish Peroxidase is attached. As a result, 12 plasma samples having low specificity to Huh-7 cell line, but high specificity to replicon cell line were obtained. These plasma samples were used in the following cell-based ELISA.
Rep5.1 cells were cultured in DMEM-10 containing 500 μg/ml of G418. The Rep5.1 cells in log phase were suspended by trypsin treatment, and 5000 cells were distributed to each well of a 96-well pate. After 4 hours for which the cells were attached to the plate, the serially diluted drug was added to each well. After 72 hours, the cells were fixed by methanol/acetone (50/50, v/v), and the decrease of HCV proteins was measured by using HCV antibody obtained as above. The extent of decrease was estimated in percentage based on the control containing no drug, and the concentration of drug at which 50% of proteins was decreased was determined to be IC50.

[1] = Hepatitis C virus, 72 h, concentration at which 50% of HCV proteins was decreased, Table 2, read-out: IC50
[2] = Hepatitis C virus, 72 h, decrease of HCV proteins measured by HCV antibody, Table 1, read-out: Level (IC50 values classified)
[3] = concentration at which 50% of HCV proteins was decreased, Table 2, read-out: IC50

CC1=C(C(=O)OCCc2ccc(N3CCCC3)c([N+](=O)[O-])c2)C(CO)NC(=S)N1 (centres unmarked) [99″, 4-Hydroxymethyl-6-methyl-2-thioxo-1,2,3,4-tetrahydro-pyrimidine-5-carboxylic acid 2-(3-nitro-4-pyrrolidin-1-yl-phenyl)-ethyl ester]
IC50 [1]: 1000 nM | IC50 [2]: < 1000 nM

COc1ccc(COC(=O)C2=C(C)NC(=S)NC2)cc1OC [Compound 40, 6-methyl-2-thioxo-1,2,3,4-tetrahydro-pyrimidine-5-carboxylic acid 3,4-dimethoxy-benzyl ester]
IC50 [1]: 92000 nM | IC50 [2]: > 20000 nM

CC1=C(C(=O)OCCSc2nc3ccccc3o2)C(CF)NC(=S)N1 (centres unmarked) [46′, 4-fluoromethyl-6-methyl-2-thioxo-1,2,3,4-tetrahydro-pyrimidine-5-carboxylic acid 2-(benzoxazol-2-ylsulfanyl)-ethyl ester]
IC50 [1]: 6000 nM | IC50 [2]: 1000 to 10000 nM

CC1=C(C(=O)OCc2ccc(Cl)s2)CNC(=S)N1 [Compound 233, 6-methyl-2-thioxo-1,2,3,4-tetrahydro-pyrimidine-5-carboxylic acid 5-chloro-thiophen-2-ylmethyl ester]
IC50 [1]: 200 nM | IC50 [2]: < 1000 nM

COc1cc(COC(=O)C2=C(C)NC(=S)NC2)ccc1OCc1ccccc1 [Compound 58, 6-methyl-2-thioxo-1,2,3,4-tetrahydro-pyrimidine-5-carboxylic acid 4-benzyloxy-3-methoxy-benzyl ester]
IC50 [1]: < 500 nM | IC50 [2]: < 1000 nM

CC1=C(C(=O)OCC#Cc2ccsc2)CNC(=S)N1 [Compound 240, 6-methyl-2-thioxo-1,2,3,4-tetrahydro-pyrimidine-5-carboxylic acid 3-thiophen-3-yl-prop-2-inyl ester]
IC50 [3]: < 400 nM

COc1cscc1CCOC(=O)C1=C(C)NC(=S)NC1CF (centres unmarked) [41′, 4-fluoromethyl-6-methyl-2-thioxo-1,2,3,4-tetrahydro-pyrimidine-5-carboxylic acid 2-(4-methoxy-thiophen-3-yl)-ethyl ester]
IC50 [1]: 15000 nM | IC50 [2]: 10000 to 20000 nM

CCCN(CCC)c1ccc(CCOC(=O)C2=C(C)NC(=S)NC2CO)cc1[N+](=O)[O-] (centres unmarked) [93″, 4-Hydroxymethyl-6-methyl-2-thioxo-1,2,3,4-tetrahydro-pyrimidine-5-carboxylic acid 2-(4-dipropylamino-3-nitro-phenyl)-ethyl ester]
IC50 [1]: 500 nM | IC50 [2]: < 1000 nM

CC1=C(C(=O)OCCc2nc3ccccc3o2)CNC(=S)N1 [Compound 265, 6-methyl-2-thioxo-1,2,3,4-tetrahydro-pyrimidine-5-carboxylic acid 2-benzoxazol-2-yl-ethyl ester]
IC50 [1]: 6000 nM | IC50 [2]: 1000 to 10000 nM

COc1ccc(Cl)cc1COC(=O)C1=C(C)NC(=S)NC1CF (centres unmarked) [36′, 4-fluoromethyl-6-methyl-2-thioxo-1,2,3,4-tetrahydro-pyrimidine-5-carboxylic acid 5-chloro-2-methoxy-benzyl ester]
IC50 [1]: 1700 nM | IC50 [2]: 1000 to 10000 nM

CC1=C(C(=O)OCc2ccc([S+](C)[O-])cc2)CNC(=S)N1 (centres unmarked) [Compound 52, 6-methyl-2-thioxo-1,2,3,4-tetrahydro-pyrimidine-5-carboxylic acid 4-methylsulfinyl-benzyl ester]
IC50 [1]: 700 nM | IC50 [2]: < 1000 nM

CC1=C(C(=O)OCCc2cccc([N+](=O)[O-])c2)C(COC(=O)c2ccc(C(=O)O)cc2)NC(=S)N1 (centres unmarked) [90″, terephthalic acid mono-{6-methyl-5-[2-(3-nitro-phenyl)-ethoxycarbonyl]-2-thioxo-1,2,3,4-tetrahydro-pyrimidin-4-ylmethyl}ester]
IC50 [1]: 6900 nM | IC50 [2]: 1000 to 10000 nM

CC1=C(C(=O)OCC#CCOCc2ccccc2)CNC(=S)N1 [Compound 214, 6-methyl-2-thioxo-1,2,3,4-tetrahydro-pyrimidine-5-carboxylic acid 4-benzyloxy-but-2-inyl ester]
IC50 [3]: < 400 nM

CC1=C(C(=O)OCc2ccc([N+](=O)[O-])cc2)CNC(=S)N1 [Compound 7, 6-methyl-2-thioxo-1,2,3,4-tetrahydro-pyrimidine-5-carboxylic acid 4-nitro-benzyl ester]
IC50 [1]: 2500 nM | IC50 [2]: 1000 to 10000 nM
